Activity calls are given as the source filed them. The rule behind the calls is not given here.
Columns and labels:
MM473 [1] = assay: Induction of cell cycle arrest in human MM473-Luc cells assessed as accumulation of cells at G2/M phase at 1.4 uM after 72 hrs by flow cytometry (reference value: 11.7%); type: functional
[2] = target: T1, Protein deacetylase HDAC6 (Homo sapiens) (UniProt Q9UBN7); assay: Inhibition of HDAC6 in human NCI-H460 cells at high-dose assessed as increase in alpha-tubulin acetylation measured by Western blot analysis; type: cell-based
T1 sequence (whole entry): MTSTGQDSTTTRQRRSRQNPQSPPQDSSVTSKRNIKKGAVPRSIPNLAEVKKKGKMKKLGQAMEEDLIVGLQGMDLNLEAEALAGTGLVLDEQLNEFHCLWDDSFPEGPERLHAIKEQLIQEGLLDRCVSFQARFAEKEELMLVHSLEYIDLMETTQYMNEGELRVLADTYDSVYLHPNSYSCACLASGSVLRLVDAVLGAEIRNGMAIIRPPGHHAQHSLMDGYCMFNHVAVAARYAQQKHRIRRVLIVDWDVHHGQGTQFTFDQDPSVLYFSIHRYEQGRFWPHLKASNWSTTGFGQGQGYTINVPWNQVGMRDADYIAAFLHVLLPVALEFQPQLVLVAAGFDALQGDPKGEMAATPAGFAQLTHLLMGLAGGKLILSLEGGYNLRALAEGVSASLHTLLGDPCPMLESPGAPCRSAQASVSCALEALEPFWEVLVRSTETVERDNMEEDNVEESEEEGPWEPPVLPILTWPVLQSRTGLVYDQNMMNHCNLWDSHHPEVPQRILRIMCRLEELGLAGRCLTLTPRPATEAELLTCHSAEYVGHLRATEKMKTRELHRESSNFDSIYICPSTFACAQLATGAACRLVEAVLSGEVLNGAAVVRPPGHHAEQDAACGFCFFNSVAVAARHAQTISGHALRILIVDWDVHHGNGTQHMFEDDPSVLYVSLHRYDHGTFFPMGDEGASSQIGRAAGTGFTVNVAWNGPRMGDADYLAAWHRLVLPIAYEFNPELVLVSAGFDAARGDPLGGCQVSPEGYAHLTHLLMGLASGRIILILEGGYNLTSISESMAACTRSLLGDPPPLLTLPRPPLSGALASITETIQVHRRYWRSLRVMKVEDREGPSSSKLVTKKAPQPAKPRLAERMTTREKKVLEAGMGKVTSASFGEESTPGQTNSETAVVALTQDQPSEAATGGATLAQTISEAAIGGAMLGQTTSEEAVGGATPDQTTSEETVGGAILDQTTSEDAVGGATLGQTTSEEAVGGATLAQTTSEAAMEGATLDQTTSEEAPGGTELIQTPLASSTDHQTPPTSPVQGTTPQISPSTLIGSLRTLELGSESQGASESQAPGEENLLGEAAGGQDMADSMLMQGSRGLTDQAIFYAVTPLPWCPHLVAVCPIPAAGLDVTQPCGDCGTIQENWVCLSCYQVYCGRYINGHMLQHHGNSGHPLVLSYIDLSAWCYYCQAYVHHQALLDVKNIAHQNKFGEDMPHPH

MM473 [3] = assay: Induction of cell cycle arrest in human MM473-Luc cells assessed as accumulation of cells at sub-G1 phase at 1.4 uM after 72 hrs by flow cytometry (reference value: 1.3%); type: functional
[4] = target: T2, Histone deacetylase 11 (Homo sapiens) (UniProt Q96DB2); assay: Inhibition of HDAC11 in human A2780 cells at 0.1 to 0.4 uM assessed as increase in p21 level and measured by Western blot analysis; type: cell-based; conditions: dose 0.1-0.4 µM
T2 sequence (whole entry): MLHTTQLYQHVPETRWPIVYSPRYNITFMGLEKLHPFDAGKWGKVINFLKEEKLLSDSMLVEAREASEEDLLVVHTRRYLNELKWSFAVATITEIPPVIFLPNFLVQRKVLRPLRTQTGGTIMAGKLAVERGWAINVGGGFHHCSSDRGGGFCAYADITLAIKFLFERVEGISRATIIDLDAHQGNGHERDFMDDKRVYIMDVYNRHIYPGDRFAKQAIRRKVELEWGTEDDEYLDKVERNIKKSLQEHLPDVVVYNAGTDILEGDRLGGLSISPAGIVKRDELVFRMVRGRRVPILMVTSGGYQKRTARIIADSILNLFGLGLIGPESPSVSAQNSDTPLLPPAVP

NCI-H460 [5] = assay: Down-regulation of POLA1 mRNA expression in human NCI-H460 cells at 0.26 uM measured by qRT-PCR assay; type: functional, cell-based
MM473 [6] = assay: Induction of cell cycle arrest in human MM473-Luc cells assessed as accumulation of cells at S phase at 1.4 uM after 72 hrs by flow cytometry (reference value: 13.7%); type: functional
[7] = Induction of cell cycle arrest in human H460-R9A cells assessed as accumulation of cells at G0/1 phase at 2.2 uM after 72 hrs by flow cytometry (reference value: 50.1%); type: functional
NCI-H460 [8] = assay: Induction of cell cycle arrest in human NCI-H460 cells assessed as accumulation of cells at S phase at 0.12 uM after 72 hrs by flow cytometry (reference value: 32.1%); type: functional
[9] = Toxicity in mouse xenografted with human H460-R9A cells assessed as body weight loss at 20 mg/kg, po qd administered 5 times a week for 3 to 4 weeks; type: organism-based; conditions: in vivo, time 3-4 weeks
[10] = Toxicity in mouse xenografted with human NCI-H460 cells assessed as body weight loss at 20 mg/kg, po qd administered 5 times a week for 3 to 4 weeks; type: organism-based; conditions: in vivo, time 3-4 weeks
[11] = target: T2, Histone deacetylase 11 (Homo sapiens); assay: Inhibition of HDAC11 in human MM473 cells at 0.1 to 0.4 uM assessed as increase in p21 level and measured by Western blot analysis; type: cell-based; conditions: dose 0.1-0.4 µM
A2780 = assay: Induction of cell cycle arrest in human A2780 cells assessed as accumulation of cells at S phase at 0.6 uM after 72 hrs by flow cytometry (reference value: 36.3%); type: functional
MM473 [12] = assay: Induction of DNA damage in human MM473 cells at 0.1 to 0.4 uM assessed as increase in p-H2AX levels and measured by Western blot analysis; type: functional, cell-based; conditions: dose 0.1-0.4 µM
[13] = Induction of cell cycle arrest in human H460-R9A cells assessed as accumulation of cells at S phase at 2.8 uM after 72 hrs by flow cytometry (reference value: 34.5%); type: functional
[14] = Induction of cell cycle arrest in human H460-R9A cells assessed as accumulation of cells at G0/1 phase at 2.8 uM after 72 hrs by flow cytometry (reference value: 50.1%); type: functional
MM473 [15] = assay: Induction of cell cycle arrest in human MM473-Luc cells assessed as accumulation of cells at S phase at 1.2 uM after 72 hrs by flow cytometry (reference value: 13.7%); type: functional
MM487 = assay: Induction of DNA damage in human MM487 cells at 0.1 to 0.4 uM assessed as increase in p-H2AX levels and measured by Western blot analysis; type: functional, cell-based; conditions: dose 0.1-0.4 µM
NCI-H460 [16] = assay: Down-regulation of POLA1 protein expression in human NCI-H460 cells at 0.25 uM measured by Western blot analysis; type: functional, cell-based

For CC(Oc1ccc(-c2ccc(C=CC(=O)O)cc2)cc1C12CC3CC(CC(C3)C1)C2)C(=O)NO (stereo not drawn), the Activity (MM473 [1]) was 16.1%, the inhibition [2] was “Active” and the Activity (MM473 [3]) was 10.2%. For the same compound, the inhibition [4] was “Active”, the Activity (NCI-H460 [5]) was “Active” and the Activity (MM473 [6]) was 81.6%.

In the case of O=C(O)C=Cc1ccc(-c2ccc(O)c(C34CC5CC(CC(C5)C3)C4)c2)cc1, the Activity [7] is reported as 22.8%, the Activity (NCI-H460 [8]) is reported as 79.7% and the Activity [9] is reported as 0%. It also gave an Activity [10] of 0%.

For O=C(O)C=Cc1ccc(-c2ccc(OCC(=O)NO)c(C34CC5CC(CC(C5)C3)C4)c2)cc1, the inhibition [11] was “Active”, the Activity (A2780) was 78.9% and the Activity (MM473 [12]) was “Active”. For the same compound, the Activity [13] was 37.4%, the Activity [14] was 49.7% and the Activity (MM473 [15]) was 62.9%. The Activity (MM487) was “Active” and the Activity (NCI-H460 [16]) was “Active”.

Reference: ChEMBL document CHEMBL5154648, “Antitumor activity of novel POLA1-HDAC11 dual inhibitors” (Eur J Med Chem, 2022)
